Earlier results, collected in the CATMoS acute toxicity set (Mansouri et al. 2021).

Experiment: rat acute oral toxicity
Conditions: in vivo

## Fc1ccc([C@@H]2CCNC[C@H]2COc2ccc3c(c2)OCO3)cc1
  LD50: 415 mg/kg

## CCC1OC(C)C(=NOC(=O)NC)S1 (stereo not given)
  LD50: 8 mg/kg

## [2H]C([2H])([2H])N(COC(C)=O)N=O
  LD50: 120 mg/kg

## N=c1ccn(O)cc1
  LD50: 75 mg/kg

## CCNC(=O)Nc1ncc([N+](=O)[O-])s1
  LD50: 2150 mg/kg

## COc1ccc2c(c1)OC(C)(C)C(c1ccccc1)C2c1ccc(OCC2CO2)cc1 (stereo not given)
  LD50: 800 mg/kg

## Clc1cc2c(c(Cl)c1Cl)Oc1cc(Cl)c(Cl)c(Cl)c1O2
  LD50: 0.887 mg/kg

## COCCN1C=CC(=C2C(=O)c3ccccc3C2=O)C=C1
  LD50: 350 mg/kg

## CCN(CCC#N)c1ccc(N=Nc2nc3ccc(S(C)(=O)=O)cc3s2)c(C)c1
  LD50: 400 mg/kg

## CC1=C(C(=O)Nc2ccccc2)CCCO1
  LD50: 15000 mg/kg

## NC(=S)Nc1ccccc1
  LD50: 3 mg/kg

## CCCCCCCC(=O)OCC
  LD50: 26000 mg/kg

## CCOP(=S)(OCC)Oc1cc(C)nc2ccccc12
  LD50: 50 mg/kg

## O=[N+]([O-])c1ccc(OP(=O)(OCCCCl)OCCCCl)cc1
  LD50: 33 mg/kg

## COC(OC)C(C)c1ccccc1 (stereo not given)
  LD50: 1850 mg/kg

## COc1ccc([C@@H]2Sc3ccccc3N(CCN(C)C)C(=O)[C@@H]2OC(C)=O)cc1
  LD50: 560 mg/kg

## Nc1ccc2nc(C(F)(F)F)[nH]c2c1
  LD50: 67 mg/kg

## Cc1cccc2sc3nncn3c12
  LD50: 250 mg/kg

## CCCCC(CC)COC(=O)c1ccccc1C(=O)OCC(CC)CCCC (stereo not given)
  LD50: 30000 mg/kg

## COc1ccc(C(=O)CCC(=O)O)c2ccccc12
  LD50: 1800 mg/kg

## Clc1nc(C(Cl)(Cl)Cl)c(Cl)c(Cl)c1Cl
  LD50: 1840 mg/kg

## O=C(Cl)OCc1ccccc1
  LD50: 3000 mg/kg

## CC(Cl)(Cl)C(=O)O
  LD50: 3860 mg/kg

## CN1C(=O)CCS(=O)(=O)C1c1ccc(Cl)c(Cl)c1 (stereo not given)
  LD50: 1050 mg/kg

## CCC1(c2ccccc2)C(=O)N=C(O)NC1=O (stereo not given)
  LD50: 150 mg/kg

## COC(C)=O
  LD50: 6480 mg/kg

## Oc1ccc(C(c2ccc(O)cc2)c2ccccn2)cc1
  LD50: 8550 mg/kg

## CCCN(CCC)C(=O)C(CCC(=O)N1CCN(CCOC(=O)Cc2c(C)n(C(=O)c3ccc(Cl)cc3)c3ccc(OC)cc23)CC1)NC(=O)c1ccccc1 (stereo not given)
  LD50: 315 mg/kg

## CN(C)C(=O)Nc1ccc(SC(F)(F)Cl)c(Cl)c1
  LD50: 336 mg/kg

## COP(=O)(OC)OC(c1ccc(Cl)cc1)P(=O)(OC)OC (stereo not given)
  LD50: 3200 mg/kg

## CC(C)N1C=CC(=C2C(=O)c3ccccc3C2=O)C=C1
  LD50: 1450 mg/kg

## C=CC(C)=CCCC(C)(C)O
  LD50: 1700 mg/kg

## O=C1CSC(=S)N1
  LD50: 320 mg/kg

## CCCSP(=O)(OCC)Oc1c(Cl)cc(Cl)cc1Cl (stereo not given)
  LD50: 151 mg/kg

## CCOP(=S)(OC)SCN1C(=O)c2ccccc2C1=O (stereo not given)
  LD50: 50 mg/kg

## C/C=C/C(=O)OCC
  LD50: 3000 mg/kg

## CCCSP(=O)(OCC)Oc1ccccc1 (stereo not given)
  LD50: 295 mg/kg

## CC(=O)N1CCOCC1
  LD50: 6130 mg/kg

## CCCC(=O)OC(=O)CCC
  LD50: 8790 mg/kg

## O=C(Oc1ccccc1)c1ccccc1O
  LD50: 3000 mg/kg

## CCN1CC2CN(C)CC(C1)C2OC(=O)c1ccc(Cl)cc1 (stereo not given)
  LD50: 200 mg/kg

## CCCCOC(=O)c1c[n+](C)c2n(c1=O)C(C)CCC2 (stereo not given)
  LD50: 1370 mg/kg

## C=CCC(N)Cc1ccccc1 (stereo not given)
  LD50: 680 mg/kg

## CC(C)(C)NCC(O)COc1ccccc1OCC1CCCO1 (stereo not given)
  LD50: 1090 mg/kg

## Cn1c2c(c(=O)n1-c1ccccc1)CCCC2
  LD50: 1500 mg/kg

## c1ccc2c(CC3=NCCN3)cccc2c1
  LD50: 1260 mg/kg

## CCC(C)OC(C)=O (stereo not given)
  LD50: 3200 mg/kg

## CCCCCCCCCCCCCCCC(=O)OCC(=O)[C@@]1(O)[C@H](C)C[C@H]2[C@@H]3CCC4=CC(=O)C=C[C@]4(C)[C@@]3(F)[C@@H](O)C[C@@]21C
  LD50: 315 mg/kg

## COc1ccc2c(c1)CCCC2=O
  LD50: 300 mg/kg

## O=C(O)COc1ccccc1
  LD50: 1500 mg/kg

## OC(c1ccccc1)C1CCCCC1 (stereo not given)
  LD50: 9300 mg/kg

## Fc1c(Cl)c(Cl)c2nc(C(F)(F)F)[nH]c2c1Cl
  LD50: 2.39 mg/kg

## NC(=S)Nc1ccc(Cl)cc1
  LD50: 15 mg/kg

## COc1ccc2c(c1)c1c3n2CCN(C)C3=NCC1
  LD50: 1400 mg/kg

## COc1ccc(C=CC(=O)OCCC(C)C)cc1
  LD50: 9600 mg/kg

## COc1cc(C=CC(=S)N2CCOCC2)cc(OC)c1OC
  LD50: 1350 mg/kg

## Cn1cc(OCC(O)CNC(C)(C)C)c2ccccc2c1=O (stereo not given)
  LD50: 145 mg/kg

## COCc1cc(C(C)(C)C)c(O)c(C(C)(C)C)c1
  LD50: 10600 mg/kg

## CCCN=C(C(OCC)c1ccccc1)N1CCCCCC1 (stereo not given)
  LD50: 220 mg/kg

## O=C1C2C3CCC(C3)C2C(=O)N1CCCCN1CCN(c2ncccn2)CC1 (stereo not given)
  LD50: 590 mg/kg

## CCC(=O)OC1CCC(N2CCCCC2)CC1 (stereo not given)
  LD50: 1980 mg/kg

## C=CCC1(C2C=CCC2)C(=O)N=C(O)NC1=O (stereo not given)
  LD50: 205 mg/kg

## CNC(=O)O[C@@H]1C[C@H](C)CC[C@H]1C(C)C
  LD50: 250 mg/kg

## CCCCCCCC(C)=O
  LD50: 3200 mg/kg

## CC(C)(c1ccccc1)c1cc(CN2CCCCC2)c(O)c(CN2CCCCC2)c1
  LD50: 600 mg/kg

## CCC(C(=O)O)c1ccc(N2Cc3ccccc3C2=O)cc1 (stereo not given)
  LD50: 373 mg/kg

## CCOC(=O)N1CCC=C(C=NOC)C1
  LD50: 200 mg/kg

## CC(C)C(NC(=O)COc1ccc(Cl)cc1Cl)C(=O)O (stereo not given)
  LD50: 750 mg/kg

## CN(C)CCNc1ncnc2ccccc12
  LD50: 670 mg/kg

## CC(C)=CC1C(C(=O)OC2CC(=O)C(C3C=CCC3)=C2C)C1(C)C (stereo not given)
  LD50: 1410 mg/kg

## Cc1noc(NS(=O)(=O)c2ccc(N)cc2)c1C
  LD50: 10000 mg/kg

## CC(=O)OCCC(C)CC(C)(C)C (stereo not given)
  LD50: 4250 mg/kg

## CC(=O)C=Cc1ccc2c(c1)OCO2
  LD50: 4000 mg/kg

## CCOP(=O)(OCC)Sc1c(Cl)c(Cl)c(Cl)c(Cl)c1Cl
  LD50: 925 mg/kg

## CC(C)NCC(O)c1ccc2ccccc2c1 (stereo not given)
  LD50: 900 mg/kg

## CC(C)CC(CC(C)C)OCCOCCO
  LD50: 8680 mg/kg

## c1cc2ccc3cccc4ccc(c1)c2c34
  LD50: 2700 mg/kg

## O=C(O)Cc1sc(-c2ccccc2)nc1-c1ccc(Cl)cc1
  LD50: 409 mg/kg

## O=C1NC(=O)C(c2ccccc2)(c2ccccc2)N1
  LD50: 1530 mg/kg

## O=[N+]([O-])c1cc2nc(C(F)(F)F)[nH]c2cc1[N+](=O)[O-]
  LD50: 15.2 mg/kg

## CCCCOCCOCCOCCCC
  LD50: 3900 mg/kg

## C=C(C)C(=O)OCCN(CC)CC
  LD50: 4700 mg/kg

## COc1ccc2ccc(=O)oc2c1CC=C(C)C
  LD50: 2900 mg/kg

## CNC(=O)ON=C1SC(=NN(C)C)SC1(C)C
  LD50: 1.8 mg/kg

## CC(COCCN)COCCCN (stereo not given)
  LD50: 242 mg/kg

## CCC(C)N(C(=O)SCc1ccccc1)C(C)CC (stereo not given)
  LD50: 10000 mg/kg

## C=COC=O
  LD50: 2820 mg/kg

## CCNC(=O)Oc1c(Cl)c(Cl)cc2[nH]c(C(F)(F)F)nc12
  LD50: 103 mg/kg

## Cn1c(=O)on(-c2ccc(Cl)c(Cl)c2)c1=O
  LD50: 777 mg/kg

## CN(C)CCOC1=Cc2ccccc2Sc2ccc(Cl)cc21
  LD50: 306 mg/kg

## COP(=S)(NC(C)C)Oc1ccc(Cl)cc1Cl (stereo not given)
  LD50: 270 mg/kg

## Cc1c(Cl)c(=O)oc2cc(OP(=O)(OCCCCl)OCCCCl)ccc12
  LD50: 211 mg/kg

## CCOP(=S)(OCC)SC1COCCS1 (stereo not given)
  LD50: 3 mg/kg

## CCc1c(C)nc2c(C)cccn2c1=O
  LD50: 820 mg/kg

## CS(=O)(=O)F
  LD50: 2 mg/kg

## COB1OB(OC)OB(OC)O1
  LD50: 5160 mg/kg

## CC(Oc1ccc(Oc2nc3ccc(Cl)cc3o2)cc1)C(=O)O (stereo not given)
  LD50: 2360 mg/kg

## CC1=C(CC(=O)O)c2cc(F)ccc2/C1=C\c1ccc(S(C)=O)cc1 (stereo not given)
  LD50: 264 mg/kg

## CC(=O)NO
  LD50: 4800 mg/kg

## CCCCOC(=O)CC#N
  LD50: 4180 mg/kg

## O=C(O)/C=C/c1ccc(Cn2ccnc2)cc1
  LD50: 4160 mg/kg

## CCCCC[C@H](O)/C=C/[C@H]1[C@H](O)CC(=O)[C@@H]1CCCCCCC(=O)O
  LD50: 228 mg/kg

## CN(C)C(CSS(=O)(=O)c1ccccc1)CSS(=O)(=O)c1ccccc1
  LD50: 1100 mg/kg

## O=C(O)C(Br)Br
  LD50: 1740 mg/kg

## N#CCC[P+](CCC#N)(CCC#N)CC[P+](CCC#N)(CCC#N)CCC#N
  LD50: 10000 mg/kg
